Article PMC11286144 (Archives of biochemistry and biophysics, 2024)
“And” between values parts separate entries of the source, which are not always exact repeats. Equal values may be shown once.

Tests used:
Assay in all cases: BFC debenzylase activity assay
K266A CYP3A4 = K266A CYP3A4 (Homo sapiens, UniProt P08684, K266A)
CYP3A4 (WT) = CYP3A4 (WT) (Homo sapiens, UniProt P08684)
K257A CYP3A4 = K257A CYP3A4 (Homo sapiens, UniProt P08684, K257A)
Chain of K257A CYP3A4 (P08684 whole entry K257A): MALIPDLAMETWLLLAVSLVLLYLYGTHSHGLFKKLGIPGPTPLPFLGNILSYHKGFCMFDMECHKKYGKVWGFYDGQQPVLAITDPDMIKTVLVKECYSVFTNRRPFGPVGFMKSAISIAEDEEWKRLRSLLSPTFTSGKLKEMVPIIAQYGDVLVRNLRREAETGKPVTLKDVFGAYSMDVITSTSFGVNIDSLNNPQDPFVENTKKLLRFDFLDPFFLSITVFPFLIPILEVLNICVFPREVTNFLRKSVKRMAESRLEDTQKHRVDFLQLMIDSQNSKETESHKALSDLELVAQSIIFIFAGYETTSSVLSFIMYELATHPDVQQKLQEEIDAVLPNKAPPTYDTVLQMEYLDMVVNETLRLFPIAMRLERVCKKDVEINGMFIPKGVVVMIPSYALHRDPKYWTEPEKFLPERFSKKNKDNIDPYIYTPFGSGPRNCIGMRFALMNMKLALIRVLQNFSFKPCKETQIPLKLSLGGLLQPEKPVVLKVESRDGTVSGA

Chain of K266A CYP3A4 (P08684 whole entry K266A): as the sequence (P08684 whole entry K257A) above, with A257K, K266A counted along it
Chain of CYP3A4 (WT) (P08684 whole entry): as the sequence (P08684 whole entry K257A) above, with A257K counted along it

nH (Hill coefficient) (K266A CYP3A4; K266A CYP3A4): 1.9 and 1.9 ± 0.1 | higher Vmax than wild type (K266A CYP3A4; K266A CYP3A4 vs WT): 44% | nH (Hill coefficient) (CYP3A4 (WT)): 1.8 and 1.8 ± 0.1 | nH (Hill coefficient) (K257A CYP3A4; K257A CYP3A4): 1.0 | higher Vmax than wild type (K257A CYP3A4; K257A CYP3A4 vs WT): 28%
Compound: O=c1cc(C(F)(F)F)c2ccc(OCc3ccccc3)cc2o1 [BFC]
